≈ marks a conversion by molar mass, not a printed value. Calls of active or inactive are those of the source. No cut-off for these calls is given here.
Tests used:
Candida albicans [1] = assay: Antifungal activity against Candida albicans K1 assessed as inhibition of fungal growth; format: functional
[2] = Stability in human plasma in PBS at pH 7.4 assessed as half life by HPLC analysis; format: ADME, cell-free
[3] = Toxicity in human HEK293 cells assessed as effect on cell viability at 50 uM incubated for 24 hrs by confocal microscopic analysis; format: cell-based; conditions: hek293, 24 h
HEK293 [4] = assay: Cytotoxicity against human HEK293 cells at 6.25 to 12.5 uM incubated for 24 hrs by Hoechst 33258 staining based flow cytometry; format: toxicity, cell-based; conditions: hek293, 24 h, dose 6.25-12.5 µM
Candida albicans [5] = assay: Antifungal activity against Candida albicans ATCC90028 infected in Galleria mellonella larvae assessed as larval survival at 15 mg/kg measured after 6 days; format: functional; conditions: time 6 day
[6] = Toxicity in human HEK293 cells assessed as effect on polymerized actin pattern at 50 uM incubated for 24 hrs by phalloidin conjugated AlexaFluor-488 staining based confocal microscopic analysis; format: cell-based; conditions: hek293, 24 h
[7] = Toxicity in Galleria mellonella larvae assessed as effect on survival at 15 mg/kg measured for 144 hrs; format: organism-based; conditions: in vivo
Aspergillus fumigatus [8] = assay: Antifungal activity against Aspergillus fumigatus ATCC204305 infected in Galleria mellonella larvae assessed as larval survival at 15 mg/kg measured after 6 days; format: functional; conditions: time 6 day
Candida albicans [9] = assay: Antifungal activity against Candida albicans ATCC90028 infected in Galleria mellonella larvae assessed as increase in larval survival at 15 mg/kg measured after 6 days; format: functional, organism-based; conditions: time 6.0 day
HEK293 [10] = assay: Cytotoxicity against human HEK293 cells at 12.5 uM incubated for 24 hrs by Hoechst 33258 staining based flow cytometry; format: toxicity, cell-based; conditions: hek293, 24 h
[11] = Toxicity in human HEK293 cells assessed as reduction in cell confluency at 50 uM incubated for 24 hrs by mitotracker red staining based confocal microscopic analysis; parameters: scale not given: the % may be the effect or the level left; conditions: hek293, 24 h
[12] = Toxicity in human HEK293 cells assessed as effect on mitochondrial morphology at 50 uM incubated for 24 hrs by mitotracker red staining based confocal microscopic analysis; format: cell-based; conditions: hek293, 24 h
[13] = Toxicity in human HEK293 cells assessed as effect on polymerized actin signal at 50 uM incubated for 24 hrs by phalloidin conjugated AlexaFluor-488 staining based confocal microscopic analysis; format: cell-based; conditions: hek293, 24 h
Aspergillus fumigatus [14] = assay: Antifungal activity against Aspergillus fumigatus ATCC204305 infected in Galleria mellonella larvae assessed as increase in larval survival at 15 mg/kg measured after 6 days; format: functional, organism-based; conditions: time 6.0 day
Aspergillus fumigatus [15] = assay: Antifungal activity against Aspergillus fumigatus assessed as inhibition of fungal growth by serial dilution assay; format: functional
[16] = Stability in PBS at pH 7.4 assessed as half life by HPLC analysis; format: physicochemical
[17] = Cytotoxicity against human HEK293 cells assessed as cell viability at 100 uM incubated for 24 hrs by Hoechst 33258 staining based flow cytometry; format: toxicity; conditions: read-out: Activity
Candida albicans [18] = assay: Antifungal activity against Candida albicans assessed as inhibition of fungal growth by serial dilution assay; format: functional
[19] = Toxicity in human HEK293 cells assessed as reduction in cell viability at 50 uM incubated for 24 hrs by mitotracker red staining based confocal microscopic analysis; conditions: hek293, 24 h
Candida albicans [20] = assay: Antifungal activity against Candida albicans ATCC90028 infected in Galleria mellonella larvae assessed as larval survival at 15 mg/kg measured after 72 hrs; format: functional
HEK293 [21] = assay: Cytotoxicity against human HEK293 cells at 6.25 to 100 uM incubated for 24 hrs by Hoechst 33258 staining based flow cytometry; format: toxicity, cell-based; conditions: hek293, 24 h, dose 6.25-100 µM
[22] = Toxicity in Galleria mellonella larvae assessed as larvae death at 15 mg/kg measured for 144 hrs; format: organism-based; conditions: in vivo
Candida albicans [23] = assay: Antifungal activity against Candida albicans SN250 assessed as inhibition of fungal growth by broth dilution assay; format: functional
[24] = Toxicity in human HEK293 cells assessed as effect on adherent cells at 6.25 uM incubated for 24 hrs by confocal microscopic analysis; format: cell-based; conditions: hek293, 24 h
[25] = Toxicity in human HEK293 cells assessed as effect on cell morphology at 6.25 uM incubated for 24 hrs by confocal microscopic analysis; format: cell-based; conditions: hek293, 24 h
[26] = Toxicity in human HEK293 cells assessed as effect on cell physiology at 6.25 uM incubated for 24 hrs by confocal microscopic analysis; format: cell-based; conditions: hek293, 24 h

C[C@@H]1[C@H](O)[C@@H](C)/C=C/C=C/C=C/C=C/C=C/C=C/C=C/[C@H](O[C@@H]2O[C@H](C)[C@@H](O)[C@H](N)[C@@H]2O)C[C@@H]2O[C@](O)(C[C@@H](O)C[C@@H](O)[C@H](O)CC[C@@H](O)C[C@@H](O)CC(=O)O[C@H]1C)C[C@H](O)[C@H]2NC(=O)NCCN
MIC (Candida albicans [1]): 500 µg/mL (≈ 510 µM)

CCOC(=O)[C@H](C)OP(=O)(OCC)Oc1ccc(COC(=O)N[C@@H]2[C@H](O)[C@H](O[C@H]3/C=C/C=C/C=C/C=C/C=C/C=C/C=C/[C@H](C)[C@@H](O)[C@@H](C)[C@H](C)OC(=O)C[C@H](O)C[C@H](O)CC[C@@H](O)[C@H](O)C[C@H](O)C[C@]4(O)C[C@H](O)[C@@H](C(=O)O)[C@H](C3)O4)O[C@H](C)[C@H]2O)cc1 (stereo partly drawn)
half-life [2]: 270 min | Activity [3]: Non-toxic | Activity (HEK293 [4]): Toxic | Activity (Candida albicans [5]): 10% | Activity [6]: Non-toxic | Activity [7]: Non-toxic | Activity (Aspergillus fumigatus [8]): 40% | Activity (Candida albicans [9]): Active | Activity (HEK293 [10]): Toxic | Activity [11]: ~ 50% | Activity [12]: Non-toxic | Activity [13]: Non-toxic | Activity (Aspergillus fumigatus [14]): Active | MIC90 (Aspergillus fumigatus [15]): > 16 µg/mL | half-life [16]: 1080 min | viability at 24 h, 100 µM [17]: ~78%

CCOC(=O)[C@H](C)OP(=O)(OCC)Oc1ccc(COC(=O)OCOC(=O)[C@H]2[C@@H]3C[C@@H](O[C@@H]4O[C@H](C)[C@@H](O)[C@H](N)[C@@H]4O)/C=C/C=C/C=C/C=C/C=C/C=C/C=C/[C@H](C)[C@@H](O)[C@@H](C)[C@H](C)OC(=O)C[C@H](O)C[C@H](O)CC[C@@H](O)[C@H](O)C[C@H](O)C[C@](O)(C[C@@H]2O)O3)cc1 (stereo partly drawn)
MIC90 (Candida albicans [18]): 2 µg/mL (≈ 1.52 µM) | half-life [2]: 132 min | Activity (HEK293 [4]): Toxic | Activity (Candida albicans [5]): 40% | Activity [7]: Non-toxic | Activity [19]: Toxic | Activity (Candida albicans [20]): 70% | Activity (Candida albicans [9]): Active | Activity (HEK293 [10]): Toxic | Activity (HEK293 [21]): Toxic | Activity (Aspergillus fumigatus [14]): Active | MIC90 (Aspergillus fumigatus [15]): 2 µg/mL (≈ 1.52 µM) | half-life [16]: 168 min

CC(C)OC(=O)OCOC(=O)[C@H]1[C@@H]2C[C@@H](O[C@@H]3O[C@H](C)[C@@H](O)[C@H](N)[C@@H]3O)/C=C/C=C/C=C/C=C/C=C/C=C/C=C/[C@H](C)[C@@H](O)[C@@H](C)[C@H](C)OC(=O)C[C@H](O)C[C@H](O)CC[C@@H](O)[C@H](O)C[C@H](O)C[C@](O)(C[C@@H]1O)O2
MIC90 (Candida albicans [18]): 2 µg/mL (≈ 1.92 µM) | half-life [2]: 198 min | Activity (HEK293 [4]): Toxic | Activity (Candida albicans [5]): 10% | Activity [7]: Non-toxic | Activity (Candida albicans [9]): Active | Activity (HEK293 [10]): Toxic | Activity (HEK293 [21]): Non-toxic | Activity [11]: ~ 10% | Activity (Aspergillus fumigatus [14]): Active | MIC90 (Aspergillus fumigatus [15]): > 16 µg/mL | half-life [16]: 456 min

CCOP(=O)(OCCOC(C)=O)Oc1ccc(COC(=O)N[C@@H]2[C@H](O)[C@H](O[C@H]3/C=C/C=C/C=C/C=C/C=C/C=C/C=C/[C@H](C)[C@@H](O)[C@@H](C)[C@H](C)OC(=O)C[C@H](O)C[C@H](O)CC[C@@H](O)[C@H](O)C[C@H](O)C[C@]4(O)C[C@H](O)[C@@H](C(=O)O)[C@H](C3)O4)O[C@H](C)[C@H]2O)cc1 (stereo partly drawn)
half-life [2]: 78 min | Activity [22]: Toxic | Activity [3]: Non-toxic | Activity (HEK293 [4]): Toxic | Activity (Candida albicans [5]): 10% | Activity [6]: Non-toxic | Activity [7]: Non-toxic | Activity (Candida albicans [9]): Active | Activity (HEK293 [10]): Toxic | Activity [11]: ~ 50% | Activity [12]: Non-toxic | Activity [13]: Non-toxic | Activity (Aspergillus fumigatus [14]): Active | MIC90 (Aspergillus fumigatus [15]): > 16 µg/mL | half-life [16]: 2100 min | viability at 24 h, 100 µM [17]: ~86%

C[C@@H]1[C@H](O)[C@@H](C)/C=C/C=C/C=C/C=C/C=C/C=C/C=C/[C@H](O[C@@H]2O[C@H](C)[C@@H](O)[C@H](N)[C@@H]2O)C[C@@H]2O[C@](O)(C[C@@H](O)C[C@@H](O)[C@H](O)CC[C@@H](O)C[C@@H](O)CC(=O)O[C@H]1C)C[C@H](O)[C@H]2NC(=O)C(CO)CO
MIC (Candida albicans [23]): 120 µg/mL (≈ 120 µM)

C[C@@H]1[C@H](O)[C@@H](C)/C=C/C=C/C=C/C=C/C=C/C=C/C=C/[C@H](O[C@@H]2O[C@H](C)[C@@H](O)[C@H](N)[C@@H]2O)C[C@@H]2O[C@](O)(C[C@@H](O)C[C@@H](O)[C@H](O)CC[C@@H](O)C[C@@H](O)CC(=O)O[C@H]1C)C[C@H](O)[C@H]2C(=O)O [AMPHOTERICIN B]
Activity [24]: Toxic | Activity [25]: Toxic | Activity [26]: Toxic | viability at 24 h, 100 µM [17]: 0%

From ChEMBL document CHEMBL6087435, “Prodrugging fungicidal amphotericin B significantly decreases its toxic effects” (Eur J Med Chem, 2025)
